According to ChEMBL document CHEMBL2346650, “Cytotoxic scalarane sesterterpenes from a Korean marine sponge Psammocinia sp” (Bioorg Med Chem Lett, 2013):

Columns and labels:
CV-1 = test: Cytotoxicity against african green monkey CV1 cells after 72 hrs by MTT assay; assay type: cell-based; conditions: Chlorocebus aethiops, CV-1, 72 h
[1] = Cytotoxicity against human MiaPaCa cells after 72 hrs by MTT assay; assay type: functional, cell-based; conditions: MIA PaCa-2, 72 h
PANC-1 = test: Cytotoxicity against human PANC1 cells after 72 hrs by MTT assay; assay type: functional, cell-based; conditions: PANC-1, 72 h
A498 = test: Cytotoxicity against human A498 cells after 72 hrs by MTT assay; assay type: functional, cell-based; conditions: A498, 72 h
ACHN = test: Cytotoxicity against human ACHN cells after 72 hrs by MTT assay; assay type: functional, cell-based

Compound	IC50 (CV-1)	IC50 [1]	IC50 (PANC-1)	IC50 (A498)	IC50 (ACHN)
Nc1ccn([C@@H]2O[C@H](CO)[C@@H](O)C2(F)F)c(=O)n1 [GEMCITABINE]	21.9 µM	17.1 µM	> 50 µM	–	–
CC(=O)O[C@@H]1OC=C2[C@@H](OC(C)=O)C[C@@H]3[C@](C)(CC[C@H]4[C@@]3(C)CC[C@H]3C(C)(C)CCC[C@@]34CO)[C@H]21	0.8 µM	0.7 µM	0.4 µM	0.7 µM	0.4 µM
CC(=O)OC[C@]12CCCC(C)(C)[C@@H]1CC[C@@]1(C)[C@@H]3C[C@H](OC(C)=O)C4=CO[C@@H](OC(C)=O)[C@@H]4[C@@]3(C)CC[C@@H]12	3 µM	2.8 µM	1.6 µM	5.7 µM	5.8 µM
CO[C@H]1C[C@@H]2CC[C@@H](C)[C@@](O)(O2)C(=O)C(=O)N2CCCC[C@H]2C(=O)O[C@H]([C@H](C)C[C@@H]2CC[C@@H](OC(=O)C(C)(CO)CO)[C@H](OC)C2)CC(=O)[C@H](C)/C=C(\C)[C@@H](O)[C@@H](OC)C(=O)[C@H](C)C[C@H](C)/C=C/C=C/C=C/1C [TEMSIROLIMUS]	–	–	–	34.3 µM	–
CC(=O)OC[C@]12CCCC(C)(C)[C@@H]1CC[C@@]1(C)[C@@H]3CC=C4C(=O)O[C@@H](O)[C@@H]4[C@@]3(C)CC[C@@H]12	2.1 µM	1.2 µM	1.3 µM	1.3 µM	1.3 µM
CC1(C)CCC[C@@]2(CO)[C@H]1CC[C@@]1(C)[C@@H]3CC=C(C=O)[C@H](C=O)[C@@]3(C)CC[C@@H]12 [12-DEACETOXY-23-HYDROXYSCALARADIAL]	> 50 µM	31.1 µM	34.3 µM	> 50 µM	> 50 µM
CC1(C)CCC[C@@]2(CO)[C@H]1CC[C@]1(C)[C@@H]2CC[C@]2(C)C3=C(C(=O)O[C@H]3O)C(O)C[C@@H]12 (mixture of isomers)	> 50 µM	> 50 µM	> 50 µM	40.7 µM	> 50 µM
CC(=O)OC[C@]12CCCC(C)(C)[C@@H]1CC[C@]1(C)[C@@H]2C[C@@H](OC(C)=O)[C@]2(C)c3cocc3CC[C@@H]12	> 50 µM	31.1 µM	48 µM	> 50 µM	> 50 µM
CC1(C)CCC[C@]2(C)[C@H]3CC[C@@]4(C)[C@@H](CC=C(C=O)[C@@H]4C=O)[C@]3(C)CC[C@@H]12 [12-DEACETOXYSCALARADIAL]	45 µM	45.9 µM	38.8 µM	> 50 µM	> 50 µM
CCN(CC)CCNC(=O)c1c(C)[nH]c(/C=C2\C(=O)Nc3ccc(F)cc32)c1C [SUNITINIB]	–	–	–	4.3 µM	5.7 µM
